From publication PMC6017792, “Hydrazone Derivatives Enhance Antileishmanial Activity of Thiochroman-4-ones” (Molecules : A Journal of Synthetic Chemistry and Natural …, 2017)

Legend:
[1] = test system: intracellular amastigotes of L. panamensis; assay: in vitro antileishmanial activity on intracellular amastigotes (EGFP strain in U-937 cells, flow cytometry); type: cell-based, Leishmania panamensis; settings: for IS (Index of Selectivity = LC50/EC50): LC50 (U-937) / EC50 (L. panamensis amastigotes); for EC50: intracellular amastigotes of L. panamensis (MHOM/CO/87/UA140-EGFP) in U-937 cells, 72 h, mean ± SD; for antileishmanial activity (in words): 10-50 µM moderately active, > 50 µM low activity
Description: Antileishmanial activity of compounds was determined according to the ability to reduce the infection by L. panamensis parasites, a Leishmania species that is highly prevalent in the Central America and Colombia as causative agent of C.L. For this, the antileishmanial activity was tested on intracellular amastigotes of L. panamensis transfected with the green fluorescent protein gene (MHOM/CO/87/UA140-EGFP strain). […] Plates were incubated at 34 °C and 5% CO2 for 3 h and then cells were washed twice with PBS to eliminate not internalized parasites. […] Cells were washed two times employing PBS, as previously, and after the last wash, the supernatant was discarded and cells were suspended in 500 μL of PBS.
Cells were analyzed by flow cytometry employing a flow cytometer (Cytomics FC 500MPL, Beckman Coulter. Pasadena, CA, USA) reading at 488 nm (exciting) and 525 nm (emitting) over an argon laser and counting 10,000 events. Infected cells were determined according the events for green fluorescence (parasites). All determinations for each compound and standard drug were carried out by triplicate, in two experiments. Infected cells exposed to amphotericin B were used as control for antileishmanial activity (positive control) while infected cells incubated in absence of any compound or drug were used as control for infection (negative control). Nonspecific fluorescence was corrected by subtracting fluorescence of unstained cells. Determinations were done by triplicate in at least two independent experiments.
Antileishmanial activity was determined according reduction of percentage of fluorescent parasites determined according to the median fluorescence intensity (MFI), obtained for each experimental condition by cytometry. The parasite values for each concentration of compound were calculated by Equation (3), where the % of parasites in the control well, corresponds to 100% of parasites:% parasites = (MFI exposed parasites/MFI unexposed parasites) × 100(3)
Results of antileishmanial activities were expressed as the EC50 calculated by Probit method. The compound were classified according to EC50 values using a scale defined by us, based on the hit criteria proposed by Katsuno et al.[25].

in vitro = settings: human
Description: (§1) Cells exposed to compounds or standard drug were incubated 72 h at 37 °C and 5% of CO2. Cytotoxic activity of each compound was determined according to the effect on the cell viability by the MTT microenzymatic method in which 3-(4,5-dimethylthiazol-2-yl)-2,5-diphenyltetrazolium bromide is reduced to a purple product named formazan by mitochondrial enzyme succinate dehydrogenase. Thus, 10 μL/well of MTT solution (5 mg/mL) were added to each well of exposed and unexposed cells, and plates were incubated at 37 °C, 5% CO2 during 3 h. The reaction was stopped by adding 100 μL/well of isopropanol with 50% and 10% of sodium dodecyl sulfate. The concentration of formazan was determined spectrophotometrically at 570 nm (Varioskan Flash Multimode Reader, Thermo Scientific, Waltham, MA, USA) and intensity of color (absorbance) was registered as O.D. Cells exposed to amphotericin B were used as control for toxicity (positive control) while cell incubated in absence of any compound or drug were used as control for viability (negative control). Non-specific absorbance was corrected by subtracting absorbance (O.D.) of the blank. Determinations were done by triplicate in at least two independent experiments.
(§2) Cytotoxicity was determined according to viability and mortality percentages obtained for each experimental condition (synthetized compounds, amphotericin B and culture medium). […] Initially, viability percentages were calculated by Equation (1), where the O.D. of control well, corresponds to 100% of viability:% viability = (O.D. exposed cells/O.D. unexposed cells) × 100(1)

[2] = test system: human monocytes (U-937 ATCC CRL-1593.2); assay: in vitro; settings: for CC50: read-out: LC50, U-937 cells, 72 h, MTT, mean ± SD
Description: as §1, §2

O=C(N/N=C1\CCSc2ccccc21)c1ccncc1 [Compound 7, (E)-N′-(Thiochroman-4-ylidene)isonicotinohydrazide]
IS (Index of Selectivity = LC50/EC50) [1]: >12.4 | EC50 ([1]; Leishmania panamensis): 56.8 ± 4.54 µM | CC50 at 72 h (in vitro): 706 µM

O=C(N/N=C1\CC(c2ccccc2)Sc2ccccc21)c1ccccc1 (stereo not shown) [Compound 21, (E)-N′-(2-Phenylthiochroman-4-ylidene)benzohydrazide]
EC50 ([1]; Leishmania panamensis): 28.5 ± 2.8 µM | CC50 at 72 h (in vitro): 529 ± 7 µM

CC1C/C(=N\NC(=O)c2ccncc2)c2ccccc2S1 (stereo not shown) [Compound 14, (E)-N′-(2-Methylthiochroman-4-ylidene)isonicotinohydrazide]
IS (Index of Selectivity = LC50/EC50) [1]: >11.9 | EC50 ([1]; Leishmania panamensis): 56.6 ± 0.7 µM | CC50 at 72 h (in vitro): > 672 µM

CC1CC(=O)c2cc(F)ccc2S1 (stereo not shown) [Compound 4, 6-Fluoro-2-methylthiochroman-4-one]
IS (Index of Selectivity = LC50/EC50) [1]: 1.4 | EC50 ([1]; Leishmania panamensis): 422 ± 9.2 µM | CC50 at 72 h (in vitro): 579 ± 59.1 µM

CC1C/C(=N\NC(=O)c2ccc(N)cc2)c2cc(F)ccc2S1 (stereo not shown) [Compound 18, (E)-4-Amino-N′-(6-fluoro-2-methylthiochroman-4-ylidene)benzohydrazide]
IS (Index of Selectivity = LC50/EC50) [1]: 0.2 | EC50 ([1]; Leishmania panamensis): 161 ± 2.4 µM | CC50 at 72 h (in vitro): 31 ± 7 µM

CC1CC(=O)c2ccccc2S1 (stereo not shown) [Compound 3, 2-Methylthiochroman-4-one]
IS (Index of Selectivity = LC50/EC50) [1]: 1.4 | EC50 ([1]; Leishmania panamensis): 445 ± 7.3 µM | CC50 at 72 h (in vitro): 604 ± 86.4 µM

NC(=O)N/N=C1\CCSc2ccccc21 [Compound 8, (E)-2-(Thiochroman-4-ylidene)hydrazinecarboxamide]
IS (Index of Selectivity = LC50/EC50) [1]: 7.0 | EC50 ([1]; Leishmania panamensis): 91.5 ± 33.4 µM | CC50 at 72 h (in vitro): 637 ± 37.9 µM

O=C(N/N=C1\CCSc2ccc(F)cc21)c1ccncc1 [Compound 11, (E)-N′-(6-Fluorothiochroman-4-ylidene)isonicotinohydrazide]
IS (Index of Selectivity = LC50/EC50) [1]: >16.6 | EC50 ([1]; Leishmania panamensis): 39.9 ± 5.3 µM | CC50 at 72 h (in vitro): > 664 µM

CC1C/C(=N\NC(=O)c2ccncc2)c2cc(F)ccc2S1 (stereo not shown) [Compound 17, (E)-N′-(6-Fluoro-2-methylthiochroman-4-ylidene)isonicotinohydrazide]
IS (Index of Selectivity = LC50/EC50) [1]: 2.1 | EC50 ([1]; Leishmania panamensis): 98.9 ± 19.3 µM | CC50 at 72 h (in vitro): 203 ± 25.4 µM

C[C@@H]1[C@H](O)[C@@H](C)/C=C/C=C/C=C/C=C/C=C/C=C/C=C/[C@H](O[C@@H]2O[C@H](C)[C@@H](O)[C@H](N)[C@@H]2O)C[C@@H]2O[C@](O)(C[C@@H](O)C[C@@H](O)[C@H](O)CC[C@@H](O)C[C@@H](O)CC(=O)O[C@H]1C)C[C@H](O)[C@H]2C(=O)O [Amphotericin B, reference compound]
EC50 ([1]; Leishmania panamensis): 0.32 µM | CC50 at 72 h (in vitro): 39.6 ± 8.7 µM

CC1C/C(=N\NC(=O)c2ccc(N)cc2)c2ccccc2S1 (stereo not shown) [Compound 15, (E)-4-Amino-N′-(2-methylthiochroman-4-ylidene)benzohydrazide]
IS (Index of Selectivity = LC50/EC50) [1]: 1.1 | EC50 ([1]; Leishmania panamensis): 91.8 ± 13.5 µM | CC50 at 72 h (in vitro): 102 ± 15.1 µM

O=C(N/N=C1\CCSc2ccc(F)cc21)c1ccccc1 [Compound 10, (E)-N′-(6-Fluorothiochroman-4-ylidene)benzohydrazide]
IS (Index of Selectivity = LC50/EC50) [1]: >17.6 | EC50 ([1]; Leishmania panamensis): 37.3 ± 3.3 µM | CC50 at 72 h (in vitro): > 666 µM

O=C(N/N=C1\CC(c2ccccc2)Sc2ccccc21)c1ccncc1 (stereo not shown) [Compound 22, (E)-N′-(2-Phenylthiochroman-4-ylidene)isonicotinohydrazide]
IS (Index of Selectivity = LC50/EC50) [1]: >33.9 | EC50 ([1]; Leishmania panamensis): 16.4 ± 3.6 µM | CC50 at 72 h (in vitro): > 556 µM

O=C(N/N=C1\CCSc2ccccc21)c1ccccc1 [Compound 6, (E)-N′-(Thiochroman-4-ylidene)benzohydrazide]
IS (Index of Selectivity = LC50/EC50) [1]: 3.9 | EC50 ([1]; Leishmania panamensis): 63.7 ± 9.2 µM | CC50 at 72 h (in vitro): 248 ± 49.6 µM

CC1C/C(=N\NC(=O)c2ccccc2)c2cc(F)ccc2S1 (stereo not shown) [Compound 16, (E)-N′-(6-Fluoro-2-methylthiochroman-4-ylidene)benzohydrazide]
EC50 ([1]; Leishmania panamensis): 43.9 ± 4.5 µM | CC50 at 72 h (in vitro): > 636 µM

CC1C/C(=N\NC(=O)c2ccccc2)c2ccccc2S1 (stereo not shown) [Compound 13, (E)-N′-(2-Methylthiochroman-4-ylidene)benzohydrazide]
IS (Index of Selectivity = LC50/EC50) [1]: 3.9 | EC50 ([1]; Leishmania panamensis): 38.1 ± 16.2 µM | CC50 at 72 h (in vitro): 150 ± 24.3 µM

NC(=O)N/N=C1\CC(c2ccccc2)Sc2ccccc21 (stereo not shown) [Compound 19, (E)-2-(2-Phenylthiochroman-4-ylidene)hydrazinecarboxamide]
IS (Index of Selectivity = LC50/EC50) [1]: 18.6 | EC50 ([1]; Leishmania panamensis): 5.4 ± 1 µM | CC50 at 72 h (in vitro): 100 ± 19.8 µM

O=C1CCSc2ccc(F)cc21 [Compound 2, 6-Fluorothiochroman-4-one]
IS (Index of Selectivity = LC50/EC50) [1]: <6.5 | EC50 ([1]; Leishmania panamensis): > 110 µM | CC50 at 72 h (in vitro): > 706 µM

O=C1CC(c2ccccc2)Sc2ccccc21 (stereo not shown) [Compound 5, 2-Phenylthiochroman-4-one]
IS (Index of Selectivity = LC50/EC50) [1]: >0.9 | EC50 ([1]; Leishmania panamensis): 44.1 ± 0.9 µM | antileishmanial activity (in words) ([1]; scale b56: EC50 < 10 µM highly active): moderate antileishmanial activity | CC50 at 72 h (in vitro): > 41.6 µM | cytotoxic activity (in words) ([2]; scale b53: LC50 < 100 µM high toxicity, 100-200 µM moderate, > 200 µM potential nontoxicity): high cytotoxic activity

Nc1ccc(C(=O)N/N=C2\CCSc3ccc(F)cc32)cc1 [Compound 12, (E)-4-Amino-N′-(6-fluorothiochroman-4-ylidene)benzohydrazide]
IS (Index of Selectivity = LC50/EC50) [1]: >6.6 | EC50 ([1]; Leishmania panamensis): 95.5 ± 6.9 µM | CC50 at 72 h (in vitro): > 634 µM

NNC(N)=S [thiosemicarbazide, reference compound]
antileishmanial activity (in words) ([1]; […]): inactive | EC50 [1]: > 267 µM | CC50 [2]: > 1000 µM

NC(=S)N/N=C1\CC(c2ccccc2)Sc2ccccc21 (stereo not shown) [Compound 20, (E)-2-(2-Phenylthiochroman-4-ylidene)hydrazinecarbothioamide]
IS (Index of Selectivity = LC50/EC50) [1]: 9.8 | EC50 ([1]; Leishmania panamensis): 5.1 ± 1.3 µM | CC50 at 72 h (in vitro): 50.1 ± 4.1 µM

O=C1CCSc2ccccc21 [Compound 1, thiocroman-4-one]
EC50 [1]: 344 ± 75.6 µM | CC50 [2]: > 1000 µM
